Drawing on patent US20140343000A1 (priority 2011, published 2014), this text covers EC50 for 11 compounds.

As usually defined, the pEC50 is −log10 of the EC50, conventionally taken in molar units.

pEC50: −log10 of the molar value.

One assay concerns recombinant NL4-3 virus (Renilla luciferase in nef, Gag P373S; NLRluc) in MT-2 cells. Briefly: whole plant or invertebrate. The class given is cell-based, HIV. Particulars: Renilla, NL43, luciferase activity in cells infected for 4-5 days with NLRluc recombinants, serial dilutions of inhibitor; class symbols (key in Table 1); read-out: EC50. The method in brief: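 Read-out is Renilla luciferase, measured immediately after adding a premixed lysis/Dual Luciferase reagent. The reporter virus, NL4-3 with luciferase replacing part of nef plus Gag P373S, infected MT-2 cells for 4–5 days under serially diluted inhibitor.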
For the compound `C=C(C)[C@@H]1CC[C@]2(NC(=O)CN3CCN(CC)CC3)CC[C@]3(C)[C@H](CC[C@@H]4[C@@]5(C)CC=C(c6ccc(C(=O)O)cc6)C(C)(C)[C@@H]5CC[C@]43C)[C@@H]12` [Example 85, 4-((1R,3aS,5aR,5bR,7aR,11aS,11bR,13aR,13bR)-3a-(2-(4-ethylpiperazin-1-yl)acetamido)-5a,5b,8,8,11a-pentamethyl-1-(prop-1-en-2-yl)-2,3,3a,4,5,5a,5b,6,7,7a,8,11,11a,11b,12,13,13a,13b-octadecahydro-1H-cyclopenta[a]chrysen-9-yl)benzoic acid], the pEC50 was more than 7.00.

Take `C=C(C)[C@@H]1CC[C@]2(NC(=O)CN(C)CCOC)CC[C@]3(C)[C@H](CC[C@@H]4[C@@]5(C)CC=C(c6ccc(C(=O)O)cc6)C(C)(C)[C@@H]5CC[C@]43C)[C@@H]12` [Example 86, 4-((1R,3aS,5aR,5bR,7aR,11aS,11bR,13aR,13bR)-3a-(2-((2-methoxyethyl)(methyl)amino)acetamido)-5a,5b,8,8,11a-pentamethyl-1-(prop-1-en-2-yl)-2,3,3a,4,5,5a,5b,6,7,7a,8,11,11a,11b,12,13,13a,13b-octadecahydro-1H-cyclopenta[a]chrysen-9-yl)benzoic acid]: the pEC50 is more than 7.00.

As to `C=C(C)[C@@H]1CC[C@]2(NC(=O)Cn3cc(-c4ccccc4)cn3)CC[C@]3(C)[C@H](CC[C@@H]4[C@@]5(C)CC=C(c6ccc(C(=O)O)cc6)C(C)(C)[C@@H]5CC[C@]43C)[C@@H]12` [Example 87, 4-((1R,3aS,5aR,5bR,7aR,11aS,11bR,13aR,13bR)-5a,5b,8,8,11a-pentamethyl-3a-(2-(4-phenyl-1H-pyrazol-1-yl)acetamido)-1-(prop-1-en-2-yl)-2,3,3a,4,5,5a,5b,6,7,7a,8,11,11a,11b,12,13,13a,13b-octadecahydro-1H-cyclopenta[a]chrysen-9-yl)benzoic acid], the pEC50 is more than 7.00.

Turning to `C=C(C)[C@@H]1CC[C@]2(NC(=O)Cn3ccnn3)CC[C@]3(C)[C@H](CC[C@@H]4[C@@]5(C)CC=C(c6ccc(C(=O)O)cc6)C(C)(C)[C@@H]5CC[C@]43C)[C@@H]12` [Example 88, 4-((1R,3aS,5aR,5bR,7aR,11aS,11bR,13aR,13bR)-3a-(2-(1H-1,2,3-triazol-1-yl)acetamido)-5a,5b,8,8,11a-pentamethyl-1-(prop-1-en-2-yl)-2,3,3a,4,5,5a,5b,6,7,7a,8,11,11a,11b,12,13,13a,13b-octadecahydro-1H-cyclopenta[a]chrysen-9-yl)benzoic acid], the pEC50 was more than 7.00.

As to `C=C(C)[C@@H]1CC[C@]2(NC(=O)Cn3ccnc3)CC[C@]3(C)[C@H](CC[C@@H]4[C@@]5(C)CC=C(c6ccc(C(=O)O)cc6)C(C)(C)[C@@H]5CC[C@]43C)[C@@H]12` [Example 89, 4-((1R,3aS,5aR,5bR,7aR,11aS,11bR,13aR,13bR)-3a-(2-(1H-imidazol-1-yl)acetamido)-5a,5b,8,8,11a-pentamethyl-1-(prop-1-en-2-yl)-2,3,3a,4,5,5a,5b,6,7,7a,8,11,11a,11b,12,13,13a,13b-octadecahydro-1H-cyclopenta[a]chrysen-9-yl)benzoic acid], the negative logarithm of the EC50 (pEC50) was more than 7.00.

For the compound `C=C(C)[C@@H]1CC[C@]2(NC(=O)C(C)N3CCS(=O)(=O)CC3)CC[C@]3(C)[C@H](CC[C@@H]4[C@@]5(C)CC=C(c6ccc(C(=O)O)cc6)C(C)(C)[C@@H]5CC[C@]43C)[C@@H]12` (stereo partly drawn) [Example 93, benzoic acid, 4-[(1R,3aS,5aR,5bR,7aR,11aS,11bR,13aR,13bR)-3a-[[2-(1,1-dioxido-4-thiomorpholinyl)-1-oxopropyl]amino]-2,3,3a,4,5,5a,5b,6,7,7a,8,11,11a,11b,12,13,13a,13b-octadecahydro-5a,5b,8,8,11a-pentamethyl-1-(1-methylethenyl)-1H-cyclopenta[a]chrysen-9-yl]], the pEC50 is more than 7.00.

For the compound `C=C(C)[C@@H]1CC[C@]2(NC(=O)CN3CC(F)(F)C3)CC[C@]3(C)[C@H](CC[C@@H]4[C@@]5(C)CC=C(c6ccc(C(=O)O)cc6)C(C)(C)[C@@H]5CC[C@]43C)[C@@H]12` [Example 94, 4-((1R,3aS,5aR,5bR,7aR,11aS,11bR,13aR,13bR)-3a-(2-(3,3-difluoroazetidin-1-yl)acetamido)-5a,5b,8,8,11a-pentamethyl-1-(prop-1-en-2-yl)-2,3,3a,4,5,5a,5b,6,7,7a,8,11,11a,11b,12,13,13a,13b-octadecahydro-1H-cyclopenta[a]chrysen-9-yl)benzoic acid], the pEC50 was more than 7.00.

Regarding `C=C(C)[C@@H]1CC[C@]2(NC(=O)CN3CCCC3=O)CC[C@]3(C)[C@H](CC[C@@H]4[C@@]5(C)CC=C(c6ccc(C(=O)O)cc6)C(C)(C)[C@@H]5CC[C@]43C)[C@@H]12` [Example 95, 4-((1R,3aS,5aR,5bR,7aR,11aS,11bR,13aR,13bR)-5a,5b,8,8,11a-pentamethyl-3a-(2-(2-oxopyrrolidin-1-yl)acetamido)-1-(prop-1-en-2-yl)-2,3,3a,4,5,5a,5b,6,7,7a,8,11,11a,11b,12,13,13a,13b-octadecahydro-1H-cyclopenta[a]chrysen-9-yl)benzoic acid], the pEC50 is more than 7.00.

For the compound `C=C(C)[C@@H]1CC[C@]2(NC(=O)CN3CCN(C(C)C)CC3)CC[C@]3(C)[C@H](CC[C@@H]4[C@@]5(C)CC=C(c6ccc(C(=O)O)cc6)C(C)(C)[C@@H]5CC[C@]43C)[C@@H]12` [Example 96, 4-((1R,3aS,5aR,5bR,7aR,11aS,11bR,13aR,13bR)-3a-(2-(4-isopropylpiperazin-1-yl)acetamido)-5a,5b,8,8,11a-pentamethyl-1-(prop-1-en-2-yl)-2,3,3a,4,5,5a,5b,6,7,7a,8,11,11a,11b,12,13,13a,13b-octadecahydro-1H-cyclopenta[a]chrysen-9-yl)benzoic acid], the pEC50 is more than 7.00.

Consider `C=C(C)[C@@H]1CC[C@]2(NC(=O)CN3CCOCC3)CC[C@]3(C)[C@H](CC[C@@H]4[C@@]5(C)CC=C(c6ccc(C(=O)O)cc6)C(C)(C)[C@@H]5CC[C@]43C)[C@@H]12` [Example 97, 4-((1R,3aS,5aR,5bR,7aR,11aS,11bR,13aR,13bR)-5a,5b,8,8,11a-pentamethyl-3a-(2-morpholinoacetamido)-1-(prop-1-en-2-yl)-2,3,3a,4,5,5a,5b,6,7,7a,8,11,11a,11b,12,13,13a,13b-octadecahydro-1H-cyclopenta[a]chrysen-9-yl)benzoic acid], for which the negative-log EC50 (pEC50) is more than 7.00.

Staying with this assay, now noted: Renilla, NL43, luciferase activity in cells infected for 4-5 days with NLRluc recombinants, serial dilutions of inhibitor; numeric values; read-out: EC50.
In the case of `C=C(C)[C@@H]1CC[C@]2(NC(=O)Cn3ccc4ccccc43)CC[C@]3(C)[C@H](CC[C@@H]4[C@@]5(C)CC=C(c6ccc(C(=O)O)cc6)C(C)(C)[C@@H]5CC[C@]43C)[C@@H]12` [Example 90, 4-((1R,3aS,5aR,5bR,7aR,11aS,11bR,13aR,13bR)-3a-(2-(1H-indol-1-yl)acetamido)-5a,5b,8,8,11a-pentamethyl-1-(prop-1-en-2-yl)-2,3,3a,4,5,5a,5b,6,7,7a,8,11,11a,11b,12,13,13a,13b-octadecahydro-1H-cyclopenta[a]chrysen-9-yl)benzoic acid], the pEC50 is 7.70.
